Measured values published in patent US20180170903A1, “PYRIDIN-3-YL ACETIC ACID DERIVATIVES AS INHIBITORS OF HUMAN IMMUNODEFICIENCY VIRUS REPLICATION” (ViiV HEALTHCARE UK (NO.5) LIMITED, priority 2015, published 2018).
Where two headings read alike, the source gives them in different places.

System: NL-RLuc virus (recombinant HIV NL4-3 proviral clone with Renilla Luciferase) in MT-2 cells
Assay: Inhibition of HIV Replication (NL-RLuc luciferase reporter virus, MT-2 cells)
Type: cell-based
Conditions: MT2, 120 h
Excerpt: Inhibition of HIV Replication:
A recombinant NL-RLuc proviral clone was constructed in which a section of the nef gene from NL4-3 was replaced with the Renilla Luciferase gene. This virus is fully infectious and can undergo multiple cycles of replication in cell culture. In addition, the luciferous reporter provides a simple and easy method for quantitating the extent of virus growth and consequently, the antiviral activity of test compounds. The plasmid pNLRLuc contains the proviral NL-Rluc DNA cloned into pUC 18 at the PvuII site. The NL-RLuc virus was prepared by transfection of 293T cells with the plasmid pNLRLuc. Transfections were performed using the LipofectAMINE PLUS kit from Invitrogen (Carlsbad, Calif.) according to the manufacturer and the virus generated was titered in MT-2 cells. For susceptibility analyses, the titrated virus was used to infect MT-2 cells in the presence of compound, and after 5 days of incubation, cells were processed and quantitated for virus growth by the amount of expressed luciferase. Assay media was RPMI 1640 supplemented with 10% heat inactivated fetal bovine serum (FBS), 100 units/ml penicillin G/100 units/ml streptomycin, 10 mM HEPES buffer pH 7.55 and 2 mM L-glutamine. The results from at least 2 experiments were used to calculate the EC50 values. Luciferase was quantitated using the Dual Luciferase kit from Promega (Madison, Wis.). Susceptibility of viruses to compounds was determined by incubation in the presence of serial dilutions of the compound. The 50% effective concentration (EC50) was calculated by using the exponential form of the median effect equation where (Fa)=1/[1+(ED50/drug conc.)^m](Johnson V A, Byington R T. Infectivity Assay. In Techniques in HIV Research. ed. Aldovini A, Walker B D. 71-76. New York: Stockton Press. 1990). Activity equal to A refers to a compound having an EC50≤100 nM, while B and C denote compounds having an EC50 between 100 nM and 1 uM (B) or >1 uM (C).

Row | SMILES | EC50 (read-out: Activity) [µM] | EC50 (read-out: EC50 μM) [µM]
1 | Cc1nc(C)c([C@H](OC(C)(C)C)C(=O)O)c(N2CCC(C)(C)CC2)c1-c1ccc(CN(C)CCc2ccc(F)cc2)cc1 [Example 5, (S)-2-(tert-butoxy)-2-(4-(4,4-dimethylpiperidin-1-yl)-5-(4-(((4-fluorophenethyl)(methyl)amino)methyl)phenyl)-2,6-dimethylpyridin-3-yl)acetic acid] | < 0.1 | –
2 | Cc1nc(C)c([C@H](OC(C)(C)C)C(=O)O)c(N2CCC(C)(C)CC2)c1-c1ccc(CN(Cc2ccc(F)cc2)C(=O)COc2ccccc2)cc1 [Example 30, (S)-2-(tert-butoxy)-2-(4-(4,4-dimethylpiperidin-1-yl)-5-(4-((N-(4-fluorobenzyl)-2-phenoxyacetamido)methyl)phenyl)-2,6-dimethylpyridin-3-yl)acetic acid] | 0.1 to 1 | 0.118
3 | COc1ccccc1CCNCc1ccc(-c2c(C)nc(C)c([C@H](OC(C)(C)C)C(=O)O)c2N2CCC(C)(C)CC2)cc1 [Example 9, (S)-2-(tert-butoxy)-2-(4-(4,4-dimethylpiperidin-1-yl)-5-(4-(((2-methoxyphenethyl)amino)methyl)phenyl)-2,6-dimethylpyridin-3-yl)acetic acid] | < 0.1 | –
4 | COC(=O)c1ccc(CNCc2ccc(-c3c(C)nc(C)c([C@H](OC(C)(C)C)C(=O)O)c3N3CCC(C)(C)CC3)cc2)cc1 [Example 18, (S)-2-(tert-butoxy)-2-(4-(4,4-dimethylpiperidin-1-yl)-5-(4-(((4-(methoxycarbonyl)benzyl)amino)methyl)phenyl)-2,6-dimethylpyridin-3-yl)acetic acid] | 0.1 to 1 | 0.228
5 | Cc1nc(C)c([C@H](OC(C)(C)C)C(=O)O)c(N2CCC(C)(C)CC2)c1-c1ccc(CN(Cc2ccc(F)cc2)C(=O)c2cccc(C(F)(F)F)c2)cc1 [Example 38, (S)-2-(tert-butoxy)-2-(4-(4,4-dimethylpiperidin-1-yl)-5-(4-((N-(4-fluorobenzyl)-3-(trifluoromethyl)benzamio)methyl)phenyl)-2,6-dimethylpyridin-3-yl)acetic acid] | < 0.1 | –
6 | COc1ccc(C(=O)N(Cc2ccc(F)cc2)Cc2ccc(-c3c(C)nc(C)c([C@H](OC(C)(C)C)C(=O)O)c3N3CCC(C)(C)CC3)cc2)cc1 [Example 45, (S)-2-(tert-butoxy)-2-(4-(4,4-dimethylpiperidin-1-yl)-5-(4-((N-(4-fluorobenzyl)-4-methoxybenzamido)methyl)phenyl)-2,6-dimethylpyridin-3-yl)acetic acid] | < 0.1 | –
7 | Cc1nc(C)c([C@H](OC(C)(C)C)C(=O)O)c(N2CCC(C)(C)CC2)c1-c1ccc(CN(Cc2ccc(F)cc2)C(=O)c2ccc(F)cc2)cc1 [Example 28, (S)-2-(tert-butoxy)-2-(4-(4,4-dimethylpiperidin-1-yl)-5-(4-((4-fluoro-N-(4-fluorobenzyl)benzamido)methyl)phenyl)-2,6-dimethylpyridin-3-yl)acetic acid] | < 0.1 | –
8 | Cc1nc(C)c([C@H](OC(C)(C)C)C(=O)O)c(N2CCC(C)(C)CC2)c1-c1ccc(CN(Cc2ccc(F)cc2)C(=O)c2ccc(C(F)(F)F)cc2)cc1 [Example 46, (S)-2-(tert-butoxy)-2-(4-(4,4-dimethylpiperidin-1-yl)-5-(4-((N-(4-fluorobenzyl)-4-(trifluoromethyl)benzamido)methyl)phenyl)-2,6-dimethylpyridin-3-yl)acetic acid] | < 0.1 | 0.016
9 | Cc1nc(C)c([C@H](OC(C)(C)C)C(=O)O)c(N2CCC(C)(C)CC2)c1-c1ccc(CNCc2ccc(F)cc2)cc1 [Example 4, (S)-2-(tert-butoxy)-2-(4-(4,4-dimethylpiperidin-1-yl)-5-(4-(((4-fluorobenzyl)amino)methyl)phenyl)-2,6-dimethylpyridin-3-yl)acetic acid] | < 0.1 | –
10 | Cc1nc(C)c([C@H](OC(C)(C)C)C(=O)O)c(N2CCC(C)(C)CC2)c1-c1ccc(CNCc2ccc(Cl)cc2)cc1 [Example 15, (S)-2-(tert-butoxy)-2-(5-(4-(((4-chlorobenzyl)amino)methyl)phenyl)-4-(4,4-dimethylpiperidin-1-yl)-2,6-dimethylpyridin-3-yl)acetic acid] | < 0.1 | –
